Test results reported in the NIST ThermoML archive (doi:10.1016/j.jct.2006.05.001).
± gives the expanded uncertainty stated by the source.

Experiments:
[1] = refractive index (Na D-line) (dimensionless); conditions: 293.15 K; 101.33 kPa; Liquid; Standard Abbe refractometry
[2] = Liquid; for mass density: 101.33 kPa; for Normal boiling temperature: Distillation

Compound | refractive index [1] | mass density ([2]; 293.15 K) [kg/m3] | Normal boiling temperature [2] [°C] | mass density ([2]; 297.15 K) [kg/m3] | mass density ([2]; 298.15 K) [kg/m3]
CCCCCCCCCCO [decan-1-ol] | 1.4373 ± 0.0008 | 829.5 ± 0.94 | 230.6 ± 0.5 | – | –
CCCCCCCCCCCCO [dodecan-1-ol] | – | – | 259.4 ± 0.5 | 830.8 ± 1.5 | –
CCCCCCCCCO [nonan-1-ol] | 1.4335 ± 0.0008 | 828.5 ± 1.7 | 215.2 ± 0.5 | – | –
CCCCCCCCO [octan-1-ol] | 1.4292 ± 0.0008 | – | 195 ± 0.5 | – | 826.25 ± 0.95
CCC(=O)O [propanoic acid] | 1.3808 ± 0.0008 | – | 141.4 ± 0.5 | – | 988.04 ± 0.53
